Results: article PMC10848769, “Tartrolon E, a secondary metabolite of a marine symbiotic bacterium, is a potent inhibitor of asexual and sexual Plasmodium falciparum” (Antimicrobial Agents and Chemotherapy, 2024)
Where two headings read alike, the source gives them in different places.

Tests used:
P. falciparum clone 7G8 = conditions: by EC50 or, for ART, RSA, well-characterized susceptibilities; cited from earlier work
[1] = tested on: P. falciparum clone TM90C2A; conditions: by EC50 or, for ART, RSA, well-characterized susceptibilities; cited from earlier work
P. falciparum clone GMC1 = conditions: by EC50 or, for ART, RSA, well-characterized susceptibilities; cited from earlier work
P. falciparum clone 3D7 = conditions: by EC50 or, for ART, RSA, well-characterized susceptibilities; cited from earlier work
[2] = tested on: P. falciparum clone IPC 3445; parameters: method as in BEI, Didier Menard; conditions: by EC50 or, for ART, RSA, well-characterized susceptibilities, ref BEI, Didier Menard; cited from earlier work
P. falciparum clone Dd2 = conditions: by EC50 or, for ART, RSA, well-characterized susceptibilities; cited from earlier work
P. falciparum clone HB3 = conditions: by EC50 or, for ART, RSA, well-characterized susceptibilities; cited from earlier work
P. falciparum clone D6 = conditions: by EC50 or, for ART, RSA, well-characterized susceptibilities; cited from earlier work
[3] = tested on: P. falciparum clone IPC 5202; parameters: method as in BEI, Didier Menard; conditions: by EC50 or, for ART, RSA, well-characterized susceptibilities, ref BEI, Didier Menard; cited from earlier work
P. falciparum clone V1/S = conditions: by EC50 or, for ART, RSA, well-characterized susceptibilities; cited from earlier work
P. falciparum clone NF54 = conditions: by EC50 or, for ART, RSA, well-characterized susceptibilities; cited from earlier work
[4] = tested on: P. falciparum clone D10 w/ yDHODH; conditions: by EC50 or, for ART, RSA, well-characterized susceptibilities; cited from earlier work
[5] = tested on: P. falciparum 3D7 asexual blood stages; assay: Standard 72-hour inhibitor-response (parasite proliferation) assay; assay type: cell-based; conditions: Plasmodium falciparum, read-out: 3D7 EC50
[6] = tested on: human liver cell line HepG2; assay: In vitro cytotoxicity assay; assay type: cell-based; conditions: for EC50: Homo sapiens, HepG2, read-out: EC50 (µM) (95% CI) HepG2
Protocol: (§1) In preliminary experiments to evaluate cytotoxicity to mammalian cells, the murine leukemia L1210 cell line and the human liver cell line HepG2 were grown under identical conditions alongside Pf 3D7. These were treated with TrtE, the chemotherapeutic methotrexate, and DSM265, an inhibitor of parasite dihydroorotate dehydrogenase ([19]).

Pf 3D7 = assay: Parasite growth alongside mammalian cytotoxicity assays; assay type: cell-based; conditions: Plasmodium falciparum; 3D7, grown under identical conditions alongside mammalian cells; read-out: EC50 (µM) (95% CI) 3D7
Protocol: as §1

[7] = tested on: murine leukemia L1210 cell line; assay: In vitro cytotoxicity assay; conditions: for EC50: Mus musculus, L1210, read-out: EC50 (µM) (95% CI) L1210
Protocol: as §1

[8] = tested on: P. falciparum gametocytes; parameters: method as in PMID 24206914; conditions: read-out: gametocytocidal potency of comparator antimalarials; cited from earlier work

Row | SMILES | Clone susceptibility to antimalarial (R/S) (P. falciparum clone 7G8) | Clone susceptibility to antimalarial (R/S) [1] | Clone susceptibility to antimalarial (R/S) (P. falciparum clone GMC1) | Clone susceptibility to antimalarial (R/S) (P. falciparum clone 3D7) | Clone susceptibility to antimalarial (R/S) [2] | Clone susceptibility to antimalarial (R/S) (P. falciparum clone Dd2) | Clone susceptibility to antimalarial (R/S) (P. falciparum clone HB3) | Clone susceptibility to antimalarial (R/S) (P. falciparum clone D6) | Clone susceptibility to antimalarial (R/S) [3] | Clone susceptibility to antimalarial (R/S) (P. falciparum clone V1/S) | Clone susceptibility to antimalarial (R/S) (P. falciparum clone NF54) | Clone susceptibility to antimalarial (R/S) [4] | EC50 ([5]; 3D7, 72-hour assay) [nM] | Selectivity index (EC50 of HepG2/EC50 3D7) ([6]; HepG2 vs 3D7) | EC50 [6] [µM] | EC50 (Pf 3D7) [µM] | Selectivity index (EC50 of L1210/EC50 3D7) ([7]; L1210 vs 3D7) | EC50 [7] [µM] | EC50 ([5]; 3D7, 72 h) [nM] | EC50 [8] [nM]
1 | CC1(C)N=C(N)N=C(N)N1c1ccc(Cl)cc1 [CG, cycloguanil] | R | R | R | S | R | R | S | S | R | R | S | – | – | – | – | – | – | – | – | –
2 | Cc1cc(Nc2ccc3ccccc3c2)n2ncnc2n1 [DSM1] | S | S | S | S | S | S | S | S | S | S | S | R | – | – | – | – | – | – | – | –
3 | Cc1cc(Nc2ccc(S(F)(F)(F)(F)F)cc2)n2nc(C(C)(F)F)nc2n1 [DSM265] | – | – | – | – | – | – | – | – | – | – | – | – | 5 | 1,980 | 9.9 | 0.005 | > 4,000 | > 20 | – | –
4 | OC(c1cc(C(F)(F)F)nc2c(C(F)(F)F)cccc12)C1CCCCN1 (stereo not drawn) [MQ, mefloquine] | S | R | S | S | R | R | S | S | R | S | S | S | – | – | – | – | – | – | – | –
5 | CN(Cc1cnc2nc(N)nc(N)c2n1)c1ccc(C(=O)N[C@@H](CCC(=O)O)C(=O)O)cc1 [Methotrexate] | – | – | – | – | – | – | – | – | – | – | – | – | – | – | > 1 | 0.047 | – | 0.012 | – | –
6 | C=C[C@H]1C[N@@]2CC[C@H]1C[C@H]2[C@H](O)c1ccnc2ccc(OC)cc12 [QN, quinine] | R | – | – | S | R | R | S | S | R | R | S | – | – | – | – | – | – | – | – | –
7 | COc1ncnc(NS(=O)(=O)c2ccc(N)cc2)c1OC [SDX, sulfadoxine] | – | – | R | R | R | R | S | S | R | – | R | – | – | – | – | – | – | – | – | –
8 | C[C@@H]1CC[C@H]2[C@@H](C)C(=O)O[C@@H]3O[C@@]4(C)CC[C@@H]1[C@]32OO4 [artemisinin] | S | S | S | S | R | S | S | S | R | S | S | S | 6 | – | – | – | – | – | – | –
9 | O=C1C(O)=C([C@H]2CC[C@H](c3ccc(Cl)cc3)CC2)C(=O)c2ccccc21 [atovaquone] | S | S | S | S | S | S | S | S | S | S | S | R | 1 | – | – | – | – | – | – | –
10 | CCN(CC)CCCC(C)Nc1ccnc2cc(Cl)ccc12 (stereo not drawn) [chloroquine] | R | R | R | S | R | R | S | S | R | R | S | S | – | – | – | – | – | – | 6 | –
11 | COc1cc(NC(C)CCCN)c2ncccc2c1 (stereo not drawn) [primaquine] | – | – | – | – | – | – | – | – | – | – | – | – | – | – | – | – | – | – | – | > 40000
12 | CCc1nc(N)nc(N)c1-c1ccc(Cl)cc1 [pyrimethamine] | R | R | R | S | R | R | R | S | R | R | S | – | 19 | – | – | – | – | – | – | –
13 | COc1ccc2nc3cc(Cl)ccc3c(Nc3cc(CN4CCCC4)c(O)c(CN4CCCC4)c3)c2n1 [pyronaridine] | – | – | – | – | – | – | – | – | – | – | – | – | – | – | – | – | – | – | – | 4260
